Test results as given in US20240197682A1, “METHOD FOR TREATING NEUROLOGICAL DISEASES USING SUPRAMOLECULE POLYMER THERAPEUTICS” (The Regents of the University of California, priority 2022, published 2024).

molecular target: T1, YFP-tagged full length 0N4R-Tau P301S aggregates seeded by 416-AD11A lysate (T24 cells) (Homo sapiens, UniProt P10636, P618S); test: Tau-AD high throughput screening (counter screen) in T24 cells; type: cell-based; conditions: T24 cells transfected with 416-AD11A lysate
T1 construct: C-terminally YFP-tagged full length 0N4R-Tau carrying a P301S mutation; expressed in transfected cells
Procedure: A fragment of the Middle Tempral Gyrus (MTG) from Alzheimer's Disease (AD) patient 2217 was resuspended in 9 volumes of PBS (ml/g of brain) and homogenized 3×12 seconds using a probe homogenizer (Thomas Scientific) with disposable Omni Tip plastic homogenizing probes (Thomas Scinetific Cat No 3409Y77) to generate a 10% brain homogenate (10% AD11-BH). The 10% AD11-BH was clarified of insoluble debris by centrifugation at 800×g for 5 minutes. The resulting supernatant was collected and the protein concentration of this clarified BH (AD11-CBH) was determined by bicinchoninic acid assay (BCA) (Thermo Fisher Cat No. 23227). HEK293 cells stably expressing a C-terminally Clover-tagged truncated 4R-Tau^243-382 transgene containing the P301L and V337M mutations and a C-terminally Ruby-tagged truncated 3R-Tau^243-382 transgene containing the L266V and V337M mutations (128/139 cells) were transfected with the AD11-CBH using lipofectamine 2000 (LF2K) (Thermo Fisher Cat No. 11668500). Briefly, 0.32 μl of LF2K were diluted in 5 μl Opti-MEM (Thermo Scientific Cat No 31985070) per well of a 384-well plate and incubated for 5 min at room temperature (RT). This mixture was added to 0.32 μg of AD11-CBH diluted in 5 μl of PBS per well of a 384-well plate and vortex briefly. The transfection mixture was incubated at room temperature for 90 min. The transfection complexes were subsequently added to a single well of a 384-well plate containing 3500 128/139 cells. After 3 days the cells were harvested, counted and plated at a density of 1 cell/well in a 96-well plate. A clonal cell line containing Clover and Ruby positive Tau aggregates was selected and termed 416-AD11A cells. Following the expansion of these 416-AD11A cells, a cell lysate was prepared by freeze/thaw. The cells from a confluent T175 flask were harvested in 1 ml of PBS containing 1× protease inhibitor cocktail by scraping. The cell suspension was subjected to 4 cycles of freezing in liquid nitrogen for 5 minutes followed by thawing at 37° C. for 5 minutes. The resulting cell lysate was centrifuged at 2000 RPM for 10 minutes to remove the cell debris and the protein concentration of the resulting 416-AD11A lysate was determined by BCA assay and aliquots frozen for future use.
HEK293 cells stably expressing C-terminally YFP-tagged full length 0N4R-Tau carrying a P301S mutation (T24 cells) are plated at a density of 4000 cells per well of a 384-well black walled, clear bottom plate (Greiner Cat No 5678-1091Q) in 60 μl of complete DMEM (DMEM (Corning Cat No 10-013-CV), 10% FBS (VWR Cat No 97068-085, 0.5% Penicilin/streptomycin (Gibco Cat No 15140-122)) containing 0.1 μg/ml Hoechst Dye (Thermo Scientific Cat No H3570). Transfection complexes are prepared by diluting 0.15 μg of 416-AD11A lysate or HEK lysate in 5 μl of PBS per well to be transfected and 0.15 μl of Lipofectamine 2000 (LF2K) (ThermoFisher Cat No 11668500) in 5 μl of Opti-MEM per well to be transfected in separate tubes. The pre-diluted 416-AD11A or HEK lysates and LF2K are subsequently mixed and allowed to incubate for 90 minutes at RT. A 10 μl aliquot of the 416-AD11A or HEK transfection complexes is added to the appropriate wells of the 384-well plate containing the T24 cells using the Bravo liquid handling platform (Agilent). Wells A23-P24 of the 384-well plate are transfected with HEK lysate to act as a reference point for spontaneous aggregation of 0N4R^P301S and for transfection related toxicity. The dilution of test compounds is performed using the Bravo liquid handling platform (Agilent). The control is DMSO in the absence of any test compound. Briefly, 1 μl of each test compound (5 mM stock) in the 384-well test plate was transferred to a 384-well plate (Greiner Cat No 781280) containing 61.5 μl of complete DMEM to generate a working stock of compounds at 80 μM. […]

T1 sequence (P10636 1-383 isoform P10636-6 P243S): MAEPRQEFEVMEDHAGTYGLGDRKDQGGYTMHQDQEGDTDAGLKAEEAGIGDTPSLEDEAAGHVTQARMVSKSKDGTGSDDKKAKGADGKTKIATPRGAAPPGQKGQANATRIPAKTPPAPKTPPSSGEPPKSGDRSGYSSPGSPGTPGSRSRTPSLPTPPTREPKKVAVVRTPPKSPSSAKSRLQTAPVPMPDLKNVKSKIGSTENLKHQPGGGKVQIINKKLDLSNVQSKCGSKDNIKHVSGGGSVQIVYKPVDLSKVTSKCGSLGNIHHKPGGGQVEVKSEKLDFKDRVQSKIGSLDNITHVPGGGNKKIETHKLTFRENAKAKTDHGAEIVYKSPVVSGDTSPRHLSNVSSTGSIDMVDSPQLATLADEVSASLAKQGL

Which “AD Tau Aggregates (% control)” value does the source give for `CNC(=O)c1ncc2c(-c3ccc(F)cc3)nn(C3CCc4ccc(F)cc43)c2n1` (stereo not shown) [Compound 257, 1-(6-fluoro-2,3-dihydro-1H-inden-1-yl)-3-(4-fluorophenyl)-N-methyl-1H-pyrazolo[3,4-d]pyrimidine-6-carboxamide] here?
The value was 100 % control.

For `CCc1ccccc1-c1nn(-c2ccc(F)cc2)c2nc(C(=O)NC)ncc12` [Compound 245], which “AD Tau Aggregates (% control)” value is on record?
The value was 120 % control.

For `CNc1ncc2c(-c3ccccc3)nn(-c3ccccc3)c2n1` [Compound 286, N-methyl-1,3-diphenyl-1H-pyrazolo[3,4-d]pyrimidin-6-amine], which “AD Tau Aggregates (% control)” value is on record?
The value was 100 % control.

Which “AD Tau Aggregates (% control)” value does the source give for `CNc1nc(=O)n(-c2nc(-c3ccc(C)s3)oc2-c2ccc(Cl)c(F)c2)cc1F` [Compound 132, 1-(5-(4-chloro-3-fluorophenyl)-2-(5-methylthiophen-2-yl)oxazol-4-yl)-5-fluoro-4-(methylamino)pyrimidin-2(1H)-one] here?
Its value is 95 % control.

With `CC(=O)Cc1nccc2cc(-c3nc(-n4ccc5cccnc5c4=O)c(-c4ccc(C(F)(F)F)cc4)o3)ccc12` [Compound 176, 7-(2-(1-(2-oxopropyl)isoquinolin-6-yl)-5-(4-(trifluoromethyl)phenyl)oxazol-4-yl)-1,7-naphthyridin-8(7H)-one] as the compound, how does the “AD Tau Aggregates (% control)” value read?
The value was 96 % control.

With `CNC(=O)c1ncc2c(-c3ccccc3)cn(-c3ccccc3)c2n1` [Compound 291, N-methyl-5,7-diphenyl-7H-pyrrolo[2,3-d]pyrimidine-2-carboxamide] as the compound, how does the “AD Tau Aggregates (% control)” value read?
Its value is 110 % control.

Which “AD Tau Aggregates (% control)” value does the source give for `Cc1cc(-c2nc(-n3cc4ccn(C5CC5)c4nc3=O)c(-c3ccc(F)c(F)c3)o2)ncc1F` [Compound 234] here?
Its value is 85 % control.

For `CC(O)COc1ccc(-c2nc(-n3cc4ccoc4nc3=O)c(-c3ccc(F)cc3)o2)cc1` (stereo not shown) [Compound 182, 3-[5-(4-fluorophenyl)-2-[4-(2-hydroxypropoxy)phenyl]-1,3-oxazol-4-yl]-2H,3H-furo[2,3-d]pyrimidin-2-one], which “AD Tau Aggregates (% control)” value is on record?
The value was 93 % control.

Which “AD Tau Aggregates (% control)” value does the source give for `Cc1cc(-c2nc(-n3cc4ccn(C5CC5)c4nc3=O)c(-c3ccc(Cl)c(F)c3)o2)ccn1` [Compound 232, 3-[5-(4-chloro-3-fluorophenyl)-2-(2-methylpyridin-4-yl)-1,3-oxazol-4-yl]-7-cyclopropyl-2H,3H,7H-pyrrolo[2,3-d]pyrimidin-2-one] here?
Its value is 91 % control.

For `CNc1nc(=O)n(-c2nc(-c3ccc(Cl)cc3)oc2-c2ccc(Cl)c(F)c2)cc1F.Cl` [Compound 126, 1-(5-(4-chloro-3-fluorophenyl)-2-(4-chlorophenyl)oxazol-4-yl)-5-fluoro-4-(methylamino)pyrimidin-2(1H)-one hydrochloride], which “AD Tau Aggregates (% control)” value is on record?
The value was 93 % control.

Which “AD Tau Aggregates (% control)” value does the source give for `CNC(=O)c1ncc2c(-c3ccc(F)cc3)nn(Cc3ccnc(F)c3)c2n1` [Compound 259] here?
Its value is 99 % control.

With `CNc1nc(=O)n(-c2nc(-c3cccc(C)c3)oc2-c2ccc(F)c(F)c2)cc1F.Cl` [Compound 133, 1-(5-(3,4-difluorophenyl)-2-(m-tolyl)oxazol-4-yl)-5-fluoro-4-(methylamino)pyrimidin-2(1H)-one hydrochloride] as the compound, how does the “AD Tau Aggregates (% control)” value read?
Its value is 92 % control.

With `CCNc1nc(=O)n(-c2nc(-c3ccc(Cl)cc3)oc2-c2ccc(Cl)c(F)c2)cc1F` [Compound 127, 1-(5-(4-chloro-3-fluorophenyl)-2-(4-chlorophenyl)oxazol-4-yl)-4-(ethylamino)-5-fluoropyrimidin-2(1H)-one] as the compound, how does the “AD Tau Aggregates (% control)” value read?
Its value is 105 % control.

For `CC(=O)Nc1ncc2c(-c3ccccc3C#N)nn(Cc3ccccc3)c2n1` [Compound 268], which “AD Tau Aggregates (% control)” value is on record?
Its value is 105 % control.

Which “AD Tau Aggregates (% control)” value does the source give for `CNC(=O)c1ncc2c(-c3ccc(F)cc3)nn(Cc3ccc(F)cc3)c2n1` [Compound 261] here?
The value was 87 % control.

For `CNC(=O)c1ncc2c(-c3ccc(F)cc3)nn(Cc3cccc(F)c3)c2n1` [Compound 260], which “AD Tau Aggregates (% control)” value is on record?
The value was 95 % control.

For `CNC(=O)c1ncc2c(N3CCCC3)nn(-c3ccc(F)cc3)c2n1` [Compound 247, 1-(4-fluorophenyl)-N-methyl-3-(pyrrolidin-1-yl)-1H-pyrazolo[3,4-d]pyrimidine-6-carboxamide], which “AD Tau Aggregates (% control)” value is on record?
The value was 120 % control.

Which “AD Tau Aggregates (% control)” value does the source give for `CC(=O)Nc1ncc2c(-c3ccccc3)nn(C(C)c3ccccc3)c2n1` (stereo not shown) [Compound 265] here?
The value was 110 % control.

With `CNC(=O)c1ncc2c(-c3ccc(F)cc3)nn(CC3CCCCC3)c2n1` [Compound 258] as the compound, how does the “AD Tau Aggregates (% control)” value read?
Its value is 110 % control.

With `CNC(=O)c1ncc2c(-c3cc4c(cnn4C)cc3F)nn(Cc3ccccc3)c2n1` [Compound 253] as the compound, how does the “AD Tau Aggregates (% control)” value read?
The value was 96 % control.

For `CNC(=O)c1ncc2c(-c3cccc4c3OC(F)(F)O4)nn(Cc3ccccc3)c2n1` [Compound 254], which “AD Tau Aggregates (% control)” value is on record?
Its value is 100 % control.

For `CNc1nc(=O)n(-c2nc(-c3cccc(C)c3)oc2-c2cc(Cl)cs2)cc1F` [Compound 135, 1-(5-(4-chlorothiophen-2-yl)-2-(m-tolyl)oxazol-4-yl)-5-fluoro-4-(methylamino)pyrimidin-2(1H)-one], which “AD Tau Aggregates (% control)” value is on record?
Its value is 100 % control.

tested on: not listed separately; test: Parallel Artificial Membrane Permeability Assay (PAMPA); type: in vitro ADME; conditions: PAMPA, pH 5.0, 200 uM test compound, read-out: PAMPA: P_app
Procedure: 5 uL of 1% lecithin (VWR 0579) dissolved in n-dodecane (Sigma Aldrich D221104) was applied to each well of a MultiScreen IP PAMPA filter plate (Millipore MAIPSWU10) and allowed to equilibrate for 5 minutes. 300 uL of PBS was added to the acceptor plate and 150 uL of 200 uM test compound dissolved in PBS and 30% ethanol was added to the donor wells before incubating the donor plate in the acceptor plate for 4 hr at 500 rpm. 100 uL was sampled from the donor and acceptor wells and the concentrations were measured by liquid chromatography-mass spectrometry (SCIEX 4500) or UV-VIS plate reader (BMG).

Which Papp at 4 hr, 200 uM does the source give for `CC(=O)Nc1ncc2c(-c3ccccc3)nn(Cc3cccnc3)c2n1` [Compound 42, N-(3-phenyl-1-(pyridin-3-ylmethyl)-1H-pyrazolo[3,4-d]pyrimidin-6-yl)acetamide] here?
Its Papp at 4 hr, 200 uM is 46.7 ×10⁻⁶ cm/s.

With `Cc1cn(-c2nc(-c3ccccc3)oc2-c2ccccc2)c(=O)nc1OCCO` [Compound 77, 1-(2,5-diphenyl-1,3-oxazol-4-yl)-4-(2-hydroxyethoxy)-5-methyl-1,2-dihydropyrimidin-2-one] as the compound, how does the Papp at 4 hr, 200 uM read?
Its Papp at 4 hr, 200 uM is greater than 50 ×10⁻⁶ cm/s.

same assay, conditions: PAMPA, pH 7.4, 200 uM test compound, read-out: PAMPA: P_app

Which Papp at 4 hr, 200 uM does the source give for `CC(=O)Nc1ncc2c(-c3ccccc3)nn(Cc3cccnc3)c2n1` [Compound 42, N-(3-phenyl-1-(pyridin-3-ylmethyl)-1H-pyrazolo[3,4-d]pyrimidin-6-yl)acetamide] here?
The Papp at 4 hr, 200 uM was 37 ×10⁻⁶ cm/s.

Which Papp at 4 hr, 200 uM does the source give for `CC1CCc2cn(-c3nc(-c4ccccc4)oc3-c3ccc(F)cc3)c(=O)nc2O1` (stereo not shown) [Compound 92, 3-(5-(4-fluorophenyl)-2-phenyloxazol-4-yl)-7-methyl-3,5,6,7-tetrahydro-2H-pyrano[2,3-d]pyrimidin-2-one] here?
Its Papp at 4 hr, 200 uM is 1.46 ×10⁻⁶ cm/s.

same assay, conditions: pH 5.0; 200 uM test compound, 4 hr

With `CCc1ccccc1-c1nn(-c2ccc(F)cc2)c2nc(C(=O)NC)ncc12` [Compound 245] as the compound, how does the “PAMPA: P_app” value read?
The value was greater than 50 ×10e−6 cm/sec.

Which “PAMPA: P_app” value does the source give for `CNC(=O)c1ncc2c(-c3cc(F)cc(F)c3)nn(Cc3ccccc3)c2n1` [Compound 252] here?
Its value is greater than 50 ×10e−6 cm/sec.

same assay, conditions: pH 7.4; 200 uM test compound, 4 hr

For `CCc1ccccc1-c1nn(-c2ccc(F)cc2)c2nc(C(=O)NC)ncc12` [Compound 245], which “PAMPA: P_app” value is on record?
Its value is greater than 50 ×10e−6 cm/sec.

For `CNC(=O)c1ncc2c(-c3cc(F)cc(F)c3)nn(Cc3ccccc3)c2n1` [Compound 252], which “PAMPA: P_app” value is on record?
Its value is greater than 50 ×10e−6 cm/sec.

For `Cc1cn(-c2nc(-c3ccccc3)oc2-c2ccccc2)c(=O)nc1OCCO` [Compound 77, 1-(2,5-diphenyl-1,3-oxazol-4-yl)-4-(2-hydroxyethoxy)-5-methyl-1,2-dihydropyrimidin-2-one], which “PAMPA: P_app” value is on record?
The value was greater than 50.0 ×10e−6 cm/sec.
